Patent US20190100549A1, “FLAVONOIDE-TYPE COMPOUNDS BEARING AN O-RHAMNOSYL RESIDUE” (Universitaet Hamburg, priority 2016, published 2019)
Several values for one entry are separate records, joined by “and”; a condition that tells them apart may be missing. Equal values may be shown once.

Key:
Format in all cases: cell-based
NF-κB = NF-κB activity in NIH3T3-KBF-Luc cells stimulated with TNFα (luciferase); settings: for % Activation: TNFα alone = 100
Description: NIH3T3-KBF-Luc cells were stably transfected with the KBF-Luc plasmid (Sancho (2003) Mol Pharmacol 63:429-438), which contains three copies of NF-κB binding site (from major histocompatibility complex promoter), fused to a minimal simian virus 40 promoter driving the luciferase gene. Cells (1×10^4 for NIH3T3-KBF-Luc) were seeded the day before the assay on 96-well plate. Then the cells were treated with the test substances for 15 min and then stimulated with 30 ng/ml of TNFα. After 6 h, the cells were washed twice with PBS and lysed in 50 μl lysis buffer containing 25 mM Tris-phosphate (pH 7.8), 8 mM MgCl2, 1 mM DTT, 1% Triton X-100, and 7% glycerol during 15 min at RT in a horizontal shaker. Luciferase activity was measured using a GloMax 96 microplate luminometer (Promega) following the instructions of the luciferase assay kit (Promega, Madison, Wis., USA). […] The experiments for each concentration of the test items were done in triplicate wells.

HaCaT cells = experiment: Glucose uptake (2-NBDG) in HaCaT keratinocytes; design: key to Measure 1 / Measure 2 / Measure 3 / Mean: total green object integrated intensity, GCU×μm2×Well; settings: +2NBDG 50 μM, 24 h; for Measure 1 / Measure 2 / Measure 3: HaCaT cells, fluorescence; for RFU specific: mean minus control; for Mean: mean of triplicate measurements; for % Glucose uptake: Rosiglitazone 80 μM = 100%
Description: HaCaT cells (5×10^4) were seeded in 96-well black plates and incubated for 24 h. Then, medium was removed and the cells cultivated in OptiMEM, labeled with 50 μM 2-NBDG (2-[N-(7-nitrobenz-2-oxa-1,3-diazol-4-yl) amino]-2-deoxy-D-glucose and treated with the test substances or the positive control, Rosiglitazone, for 24 h. Medium was removed and the wells were carefully washed with PBS and incubated in PBS (100l/well). Finally the fluorescence was measured using the Incucyte FLR software, the data were analyzed by the total green object integrated intensity (GCU×μm2×Well) of the imaging system IncuCyte HD (Essen BioScience). The fluorescence of Rosiglitazone is taken as 100% of glucose uptake, and the glucose uptake was calculated as (% Glucose uptake)=100(T−B)/(R−B), where T (treated) is the fluorescence of test substance-treated cells, B (Basal) is the fluorescence of 2-NBDG cells and […] is the fluorescence of cells treated with Rosiglitazone.

[1] = test system: normal human epidermal keratinocytes (NHEK); experiment: Cytotoxicity on NHEK monolayer cultures (MTT reduction assay and morphological observation); settings: for Viability (%): single values
Description: To determine the cytotoxicity of flavonoid-5-O-α-L-rhamnosides tests were performed versus their aglycon derivatives in cell monolayer cultures. For this purpose concentrations ranging from 1 μM to 250 μM were chosen. The viability of normal human epidermal keratinocytes (NHEK) was twice evaluated by a MTT reduction assay and morphological observation with a microscope. NHEK were grown at 37° C. and 5% CO2 aeration in Keratinocyte-SFM medium supplemented with epidermal growth factor (EGF) at 0.25 ng/mL, pituitary extract (PE) at 25 μg/mL and gentamycin (25 μg/mL) for 24 h and were used at the 3rd passage. For cytotoxicity testing, pre-incubated NHEK were given fresh culture medium containing a specific concentration of test compound and incubated for 24 h. After a medium change at same test concentration cells were incubated a further 24 h until viability was determined. Test results are given in Table B2 and illustrated in FIG. 10.

STAT3 = STAT3 activity in HeLa-STAT3-luc cells stimulated with IFN-γ (luciferase); settings: for Mean: mean of triplicate wells
Description: HeLa-STAT3-luc cells were stably transfected with the plasmid 4xM67 pTATA TK-Luc. Cells (20×10^3 cells/ml) were seeded 96-well plate the day before the assay. Then the cells were treated with the test substances for 15 min and then stimulated with IFN-γ 25 IU/ml. After 6 h, the cells were washed twice with PBS and lysed in 50 μl lysis buffer containing 25 mM Tris-phosphate (pH 7.8), 8 mM MgCl2, 1 mM DTT, 1% Triton X-100, and 7% glycerol during 15 min at RT in a horizontal shaker. Luciferase activity was measured using GloMax 96 microplate luminometer (Promega) following the instructions of the luciferase assay kit (Promega, Madison, Wis., USA). […] The experiments for each concentration of the test items were done in triplicate wells.

[2] = 25 μM + IFNγ 25 U/ml, IFNγ alone = 100
[3] = 50 μM + IFNγ 25 U/ml, IFNγ alone = 100
[4] = 50 μM test substance, +IFNγ 25 U/ml, IFNγ alone = 100% activation

## Chrysin-5-O-α-L-rhamnoside [CR2]
NF-κB; 10 μM + 30 ng/ml TNFα
  RLU 1: 156600 RLU
  RLU 2: 160140 RLU
  RLU 3: 151070 RLU
  RLU MEAN: 155937 RLU
  RLU specific: 132573 RLU
  % Activation: 101.7%
NF-κB; 25 μM + 30 ng/ml TNFα
  RLU 1: 170390 RLU
  RLU 2: 179220 RLU
  RLU 3: 163490 RLU
  RLU MEAN: 171033 RLU
  RLU specific: 147670 RLU
  % Activation: 113.2%
HaCaT cells; 25 μM test substance
  Measure 1: 427937
  Measure 2: 431593
  Measure 3: 390512
  RFU specific: 410367 RFU
  Mean: 416681
  % Glucose uptake: 47.2%
HaCaT cells; 50 μM test substance
  Measure 1: 771478
  Measure 2: 1100390
  Measure 3: 923151
  RFU specific: 925359 RFU
  Mean: 931673
  % Glucose uptake: 106.5%

## O=C1CC(c2ccc(O)cc2)Oc2cc(O)cc(O)c21 (stereo not drawn) [Naringenin, 4′,5,7-Trihydroxyflavanone]
[1]; 1 μM
  Viability (%) Mean: 95%
  Viability (%): 96% and 95%
[1]; 2.5 μM
  Viability (%) Mean: 93%
  Viability (%): 95% and 92%
[1]; 5 μM
  Viability (%) Mean: 92%
  Viability (%): 93% and 91%
[1]; 10 μM
  Viability (%) Mean: 95%
  Viability (%): 95%
[1]; 25 μM
  Viability (%) Mean: 92%
  Viability (%): 89% and 94%
[1]; 50 μM
  Viability (%) Mean: 89%
  Viability (%): 85% and 94%
[1]; 100 μM
  Morph. obs.: +/−, *
  Viability (%) Mean: 75%
  Viability (%): 76% and 74%
[1]; 250 μM
  Morph. obs.: +/−, *
  Viability (%) Mean: 47%
  Viability (%): 48% and 47%
[1]; 250 μM, listed as naringenin
  Viability (%) Mean: about 50%

## COc1ccc(-c2coc3cc(O[C@@H]4OC(C)[C@H](O)C(O)C4O)cc(O[C@@H]4OC(C)[C@H](O)C(O)C4O)c3c2=O)cc1 (stereo partly drawn) [BR1, Biochanin A-5,7-di-O-α-L-rhamnoside]
NF-κB; 10 μM + 30 ng/ml TNFα
  RLU 1: 259120 RLU
  RLU 2: 247590 RLU
  RLU 3: 229500 RLU
  RLU MEAN: 245403 RLU
  RLU specific: 222040 RLU
  % Activation: 170.3%
NF-κB; 25 μM + 30 ng/ml TNFα
  RLU 1: 211660 RLU
  RLU 2: 208010 RLU
  RLU 3: 203720 RLU
  RLU MEAN: 207797 RLU
  RLU specific: 184433 RLU
  % Activation: 141.4%
STAT3; 25 μM + IFNγ 25 U/ml
  RLU 1: 8162 RLU
  RLU 2: 12819 RLU
  RLU 3: 11157 RLU
  RLU MEAN: 10713 RLU
  RLU specific: 8878 RLU
STAT3; [2]
  % Activation: 110.41%
STAT3; 50 μM + IFNγ 25 U/ml
  RLU 1: 12336 RLU
  RLU 2: 11620 RLU
  RLU 3: 12104 RLU
  RLU MEAN: 12020 RLU
  RLU specific: 10185 RLU
STAT3; [3]
  % Activation: 126.67%

## COc1ccc(C2CC(=O)c3c(O)cc(O)cc3O2)cc1O (stereo not drawn) [Hesperetin, 3′,5,7-Trihydroxy-4′-methoxyflavanone]
[1]; 1 μM
  Viability (%) Mean: 105%
  Viability (%): 103% and 106%
[1]; 2.5 μM
  Viability (%) Mean: 103%
  Viability (%): 98% and 109%
[1]; 5 μM
  Viability (%) Mean: 106%
  Viability (%): 107% and 106%
[1]; 10 μM
  Viability (%) Mean: 103%
  Viability (%): 101% and 105%
[1]; 25 μM
  Viability (%) Mean: 108%
  Viability (%): 106% and 109%
[1]; 50 μM
  Viability (%) Mean: 106%
  Viability (%): 106%
[1]; 100 μM
  Viability (%) Mean: 99%
  Viability (%): 98% and 100%
[1]; 250 μM
  Viability (%) Mean: 57%
  Viability (%): 54% and 59%
[1]; 250 μM, listed as hesperetin
  Viability (%) Mean: about 50%

## COc1ccc(-c2cc(=O)c3c(O)cc(O)cc3o2)cc1O [Diosmetin, 5,7-Trihydroxy-4′-methoxyflavone, reference compound]
STAT3; [4]
  % Activation: 50.00%

## Diosmetin-5-O-α-L-rhamnoside [DR2]
NF-κB; 10 μM + 30 ng/ml TNFα
  RLU 1: 211150 RLU
  RLU 2: 215320 RLU
  RLU 3: 213260 RLU
  RLU MEAN: 213243 RLU
  RLU specific: 189880 RLU
  % Activation: 145.6%
NF-κB; 25 μM + 30 ng/ml TNFα
  RLU 1: 245900 RLU
  RLU 2: 241550 RLU
  RLU 3: 234880 RLU
  RLU MEAN: 240777 RLU
  RLU specific: 217413 RLU
  % Activation: 166.7%
HaCaT cells; 25 μM test substance
  Measure 1: 632398
  Measure 2: 940240
  Measure 3: 197738
  RFU specific: 583811 RFU
  Mean: 590125
  % Glucose uptake: 67.2%
HaCaT cells; 50 μM test substance
  Measure 1: 2958363
  Measure 2: 1297231
  Measure 3: 2493030
  RFU specific: 2243227 RFU
  Mean: 2249541
  % Glucose uptake: 258.2%
STAT3; 25 μM test substance, +IFNγ 25 U/ml, HeLa-STAT3-luc cells, replicate well 1
  RLU 1: 12137 RLU
STAT3; 25 μM test substance, +IFNγ 25 U/ml, HeLa-STAT3-luc cells, replicate well 2
  RLU 2: 10269 RLU
STAT3; 25 μM test substance, +IFNγ 25 U/ml, HeLa-STAT3-luc cells, replicate well 3
  RLU 3: 9275 RLU
STAT3; 25 μM test substance, +IFNγ 25 U/ml, mean minus control
  RLU specific: 8553 RLU
STAT3; 25 μM test substance, +IFNγ 25 U/ml
  Mean: 10560 RLU
STAT3; 25 μM test substance, +IFNγ 25 U/ml, IFNγ alone = 100% activation
  % Activation: 68.33%
STAT3; 50 μM test substance, +IFNγ 25 U/ml, HeLa-STAT3-luc cells, replicate well 1
  RLU 1: 13005 RLU
STAT3; 50 μM test substance, +IFNγ 25 U/ml, HeLa-STAT3-luc cells, replicate well 2
  RLU 2: 10547 RLU
STAT3; 50 μM test substance, +IFNγ 25 U/ml, HeLa-STAT3-luc cells, replicate well 3
  RLU 3: 10143 RLU
STAT3; 50 μM test substance, +IFNγ 25 U/ml, mean minus control
  RLU specific: 9224 RLU
STAT3; 50 μM test substance, +IFNγ 25 U/ml
  Mean: 11232 RLU
STAT3; [4]
  % Activation: 73.69%

## Silibinin-5-O-α-L-rhamnoside [SR1]
NF-κB; 10 μM + 30 ng/ml TNFα
  RLU 1: 269710 RLU
  RLU 2: 262180 RLU
  RLU 3: 254090 RLU
  RLU MEAN: 261993 RLU
  RLU specific: 229147 RLU
  % Activation: 154.8%
NF-κB; 25 μM + 30 ng/ml TNFα
  RLU 2: 171280 RLU
  RLU 3: 171730 RLU
  RLU MEAN: 172650 RLU
  RLU specific: 139803 RLU
  % Activation: 94.4%
STAT3; 25 μM + IFNγ 25 U/ml
  RLU 1: 9507 RLU
  RLU 2: 11653 RLU
  RLU 3: 10203 RLU
  RLU MEAN: 10454 RLU
  RLU specific: 8447 RLU
STAT3; [2]
  % Activation: 92.24%
STAT3; 50 μM + IFNγ 25 U/ml
  RLU 1: 10090 RLU
  RLU 2: 11355 RLU
  RLU 3: 10938 RLU
  RLU MEAN: 10794 RLU
  RLU specific: 8787 RLU
STAT3; [3]
  % Activation: 95.95%
